{"source": "ChEMBL document CHEMBL1770102", "about": "“Identification of novel potential antibiotics for tuberculosis by in silico structure-based drug screening” (Eur J Med Chem, 2011)", "key": {"[1]": {"system": "Mycobacterium vanbaalenii", "experiment": "Antibacterial activity against Mycobacterium vanbaalenii assessed as growth inhibition at 30 uM after 6 hrs by microplate reader", "format": "functional", "conditions": "Mycolicibacterium vanbaalenii"}, "[2]": {"system": "Mycobacterium vanbaalenii", "experiment": "Antibacterial activity against Mycobacterium vanbaalenii assessed as growth inhibition at 30 uM after 72 hrs by microplate reader", "format": "functional", "conditions": "Mycolicibacterium vanbaalenii"}, "Rhodococcus opacus [3]": {"system": "Rhodococcus opacus", "experiment": "Antibacterial activity against Rhodococcus opacus assessed as growth inhibition at 100 ug/ml after 72 hrs by microplate reader", "format": "functional"}, "MDCK": {"system": "MDCK", "experiment": "Cytotoxicity against dog MDCK cells at 30 uM after 2 days by measuring absorbance at 460 nm", "format": "cell-based, Canis lupus familiaris", "conditions": "48 h"}, "SH-SY5Y": {"system": "SH-SY5Y", "experiment": "Cytotoxicity against human SH-SY5Y cells at 30 uM after 2 days by measuring absorbance at 460 nm", "format": "functional, cell-based"}, "Rhodococcus opacus [4]": {"system": "Rhodococcus opacus", "experiment": "Antibacterial activity against Rhodococcus opacus assessed as growth inhibition at 50 uM after 72 hrs by microplate reader", "format": "functional"}, "[5]": {"system": "Mycobacterium tuberculosis", "experiment": "Antibacterial activity against Mycobacterium tuberculosis assessed as inhibition of cell growth after 24 hrs", "format": "functional, organism-based"}, "Rhodococcus opacus [6]": {"system": "Rhodococcus opacus", "experiment": "Antibacterial activity against Rhodococcus opacus assessed as growth inhibition at 30 uM after 72 hrs by microplate reader", "format": "functional"}, "Escherichia coli [7]": {"system": "Escherichia coli", "experiment": "Toxicity against Escherichia coli JM109", "format": "organism-based", "conditions": "in vivo"}, "Escherichia coli [8]": {"system": "Escherichia coli", "experiment": "Toxicity against Escherichia coli BL21"}, "[9]": {"system": "Mycobacterium vanbaalenii", "experiment": "Antibacterial activity against Mycobacterium vanbaalenii assessed as inhibition of cell growth after 24 hrs", "format": "functional, Mycolicibacterium vanbaalenii"}}, "note": "Calls of active or inactive are those of the source. No cut-off for these calls is given here.", "data": [{"molecule": "COC(=O)c1ccc(Cl)c(NC(=O)CN(c2ccc(OCc3ccccc3)cc2)S(C)(=O)=O)c1", "values": [{"measurement": "growth inhibition (GI)", "setting": "[1]", "value": "Active"}, {"measurement": "growth inhibition (GI)", "setting": "[2]", "value": "Active"}]}, {"molecule": "CN(C(=O)CSc1nc(Nc2ccccc2)nc(N2CCOCC2)n1)C12CC3CC(CC(C3)C1)C2", "values": [{"measurement": "growth inhibition (GI)", "setting": "[1]", "value": "Active"}, {"measurement": "growth inhibition (GI)", "setting": "[2]", "value": "inactive"}]}, {"molecule": "CC1(C)S[C@@H]2[C@H](NC(=O)[C@H](N)c3ccccc3)C(=O)N2[C@H]1C(=O)O", "values": [{"measurement": "growth inhibition (GI)", "setting": "Rhodococcus opacus [3]", "value": "Active"}]}, {"molecule": "O=S(=O)(NCCc1ccccc1)c1cccc2c(S(=O)(=O)NCCc3ccccc3)cccc12", "values": [{"measurement": "growth inhibition (GI)", "setting": "[1]", "value": "inactive"}]}, {"molecule": "COc1ccc(OC)c(NS(=O)(=O)c2ccc(NC(=O)CN3C(=O)c4cccc5cccc3c45)cc2)c1", "values": [{"measurement": "growth inhibition (GI)", "setting": "[1]", "value": "Active"}, {"measurement": "growth inhibition (GI)", "setting": "[2]", "value": "Active"}, {"measurement": "Activity", "setting": "MDCK", "value": "Toxic"}, {"measurement": "Activity", "setting": "SH-SY5Y", "value": "Toxic"}]}, {"molecule": "NNC(=O)c1ccncc1", "note": "[ISONIAZID]", "values": [{"measurement": "growth inhibition (GI)", "setting": "[2]", "value": "Active"}, {"measurement": "growth inhibition (GI)", "setting": "Rhodococcus opacus [4]", "value": "Active"}, {"measurement": "IC50", "setting": "[5]", "value": 15, "unit": "µM"}]}, {"molecule": "COc1cc2c(cc1NC(=O)CSc1nnc(-c3ccccc3C)n1Cc1ccoc1)oc1ccccc12", "values": [{"measurement": "growth inhibition (GI)", "setting": "[1]", "value": "Active"}, {"measurement": "growth inhibition (GI)", "setting": "[2]", "value": "Active"}, {"measurement": "growth inhibition (GI)", "setting": "Rhodococcus opacus [6]", "value": "Active"}, {"measurement": "Activity", "setting": "Escherichia coli [7]", "value": "Non-toxic"}, {"measurement": "Activity", "setting": "Escherichia coli [8]", "value": "Non-toxic"}, {"measurement": "IC50", "setting": "[9]", "value": 5.3, "unit": "µM"}, {"measurement": "Activity", "setting": "MDCK", "value": "Non-toxic"}, {"measurement": "Activity", "setting": "SH-SY5Y", "value": "Not toxic"}]}]}
